Patent publication US6528618B1, “Anti-inflammatory peptides derived from C-reactive protein” (Yeda Research and Development Co. Ltd., priority 1997, dated 2003)
“Also recorded” adds a separate entry of the source. Where a SMILES comes first, the peptide text is derived from it.

How the values were obtained:
[1] = target: T1, human leukocyte elastase (hLE) (Homo sapiens, UniProt P08246); assay: In vitro inhibition of hLE (cleavage of MeOSuc-AAPV-NA); assay type: biochemical
T1 construct: Neutrophils (1.4 billion) were isolated from whole blood obtained from a single healthy laboratory donor; from tissue; host or cells: neutrophils from whole blood of a single healthy donor
T1 sequence (P08246 30-247 limits assumed): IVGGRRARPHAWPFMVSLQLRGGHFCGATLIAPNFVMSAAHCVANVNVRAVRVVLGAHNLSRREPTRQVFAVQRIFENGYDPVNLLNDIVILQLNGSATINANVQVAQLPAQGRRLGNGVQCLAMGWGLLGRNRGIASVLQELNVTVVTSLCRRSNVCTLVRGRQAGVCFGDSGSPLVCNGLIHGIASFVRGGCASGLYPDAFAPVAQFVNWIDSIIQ
Experimental: (§1) The enzymatic activity was assayed with MeOSuc-AAPV-NA for hLE determination and Suc-AAPF-NA for hCG determination (both in 100 mM Hepes buffer, pH 7.4, containing 0.05% of the […] detergent Brij-35). The activities of the individual enzymatic fractions were 100% free from cross-contamination. […] The fractions containing hLE and hCG were dialyzed each against 0.1% pyridinium acetate, pH 5.3, divided into 20 aliquots, lyophilized, and stored at −20 ° C. until use.
(v) Inhibition experiments with hLE: Peptides were dissolved in 100 mM Hepes buffer pH 7.4 containing 0.1% Brij-35 with 10%. DMSO to yield 300 μM solutions, which were used to make further dilutions with the same buffer, and 80 μL aliquots were added in duplicates to 96-well plates. The substrate, 600 μM MeOSuc-AAPV-NA in the same buffer with 5% DMSO, was added to each well in addition to the blank wells, and the plate was placed in the plate reader equilibrated to 37 C (Dynateck MR-6000). Lyophilized aliquots of hLE were dissolved in 1600 μL of 100 mM Hepes buffer without DMSO, and 80 μL of the enzyme solution was added to the peptides and substrate to initiate the reaction. […] The final volume was 240 μL containing: 5% DMSO, 1-100 μM of peptide, 200 μM substrate, and 0.75 μg (˜25 picomol) enzyme.
(viii) Calculations: For hLE, V is determined by fitting a linear equation to the first 6 time-points (10 min) of the kinetics data using the least squares method. […] Several inhibitor concentration in duplicates and two control wells were used to fit a linear equation to graphs of Vo/Vi−1 vs. [I] for each inhibitor using the least squares method (8 data points for each inhibitor). From calculating the error in the slope of the equation, the relative error for Ki was deduced:
Ki={slope*(1+[S]/Km)}^−1because Ki=[I]*{(1+[S]/Km)*(Vo/Vi−1)}^−1.
The hLE inhibitory capability of CRP-derived peptides was evaluated by inhibiting the enzymatic cleavage of MeOSuc-AAPV-NA as described in Materials and Methods (section v).

[2] = target: T2, human leukocyte cathepsin G (hCG) (Homo sapiens, UniProt P08311); assay: In vitro inhibition of hCG (cleavage of Suc-AAPF-NA); assay type: biochemical
T2 construct: Neutrophils (1.4 billion) were isolated from whole blood obtained from a single healthy laboratory donor; from tissue; host or cells: neutrophils from whole blood of a single healthy donor
T2 sequence (P08311 21-243 limits assumed): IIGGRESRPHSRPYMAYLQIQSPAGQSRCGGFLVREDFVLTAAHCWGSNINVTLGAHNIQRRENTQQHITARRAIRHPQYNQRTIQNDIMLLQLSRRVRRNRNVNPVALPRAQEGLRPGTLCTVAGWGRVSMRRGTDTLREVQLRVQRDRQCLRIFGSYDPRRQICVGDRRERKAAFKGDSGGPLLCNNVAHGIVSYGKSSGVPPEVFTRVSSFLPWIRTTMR
Experimental: as §1
vi) Inhibition experiments with hCG: Similar conditions to hLE inhibition experiments were used except the substrate: 80 μL of 1.80 mM Suc-AAPF-NA. The enzyme was dissolved in 800 μL buffer, and the reaction was monitored every 6 min for 1 hour. The final volume was 240 μL containing: 5% DMSO, 1-100 μM peptide, 600 μM substrate, and 1.2 μg enzyme (about 40 picomol).
For hCG, V is determined by fitting a quadratic equation to the total kinetic data (60 min), using the least squares method and calculating V at t=0.
The hCG inhibitory capability of CRP-derived peptides was evaluated by inhibiting the enzymatic cleavage of Suc-AAPF-NA as described in Materials and Methods (section vi).

[3] = hCG Ki [μM], Table 2, substrate Suc-AAPF-NA 600 μM, pH 7.4
[4] = hLE Ki [μM], Table 1, substrate MeOSuc-AAPV-NA 200 μM, pH 7.4, 37 C
[5] = hCG Ki [μM], Table 1, substrate Suc-AAPF-NA 600 μM, pH 7.4
[6] = hLE Ki [μM], Table 2, substrate MeOSuc-AAPV-NA 200 μM, pH 7.4, 37 C

| SMILES | hLE inhibitory activity (in words) [1] | Ki [2, 3] [µM] | Ki [1, 4] [µM] | Ki [2, 5] [µM] | also measured |
| --- | --- | --- | --- | --- | --- |
| CC[C@H](C)[C@H](NC(=O)[C@H](CCC(=O)O)NC(=O)[C@H](CCCCN)NC(=O)[C@H](CO)NC(=O)[C@H](Cc1c[nH]c2ccccc12)NC(=O)[C@H](Cc1ccccc1)NC(=O)[C@@H](NC(=O)[C@H](CC(C)C)NC(=O)[C@@H](NC(=O)[C@@H](N)CCC(=O)O)[C@@H](C)CC)[C@@H](C)CC)C(=O)NCC(=O)N[C@@H](Cc1ccc(O)cc1)C(=O)N[C@@H](CO)C(=O)N[C@@H](Cc1ccccc1)C(=O)N[C@H](C(=O)O)[C@@H](C)O [Peptide 23, Glu-Ile-Leu-Ile-Phe-Trp-Ser-Lys-Glu-Ile-Gly-Tyr-Ser-Phe-Thr] (H-EILIFWSKEIGYSFT-OH; N-terminus and C-terminus assumed) | small decrease in inhibitory activity | 0.85 ± 0.25 | – | – | – |
| CC[C@H](C)[C@H](NC(=O)[C@H](CO)NC(=O)[C@H](Cc1ccc(O)cc1)NC(=O)CNC(=O)[C@@H](N)CCCNC(=N)N)C(=O)N[C@@H](Cc1ccccc1)C(=O)N[C@@H](CO)C(=O)N[C@@H](Cc1ccc(O)cc1)C(=O)N[C@@H](C)C(=O)N[C@H](C(=O)N[C@@H](CCCCN)C(=O)N[C@@H](CCCNC(=N)N)C(=O)N[C@@H](CCC(N)=O)C(=O)N[C@@H](CC(=O)O)C(=O)N[C@@H](CC(N)=O)C(=O)O)[C@@H](C)O [Peptide 3, Arg-Gly-Tyr-Ser-Ile-Phe-Ser-Tyr-Ala-Thr-Lys-Arg-Gln-Asp-Asn] (H-RGYSIFSYATKRQDN-OH) | – | – | > 200 | > 200 | – |
| CC[C@H](C)[C@H](N)C(=O)N[C@@H](CC(C)C)C(=O)N[C@@H](Cc1ccccc1)C(=O)N[C@@H](CCC(=O)O)C(=O)N[C@H](C(=O)N1CCC[C@H]1C(=O)N[C@@H](CCC(=O)O)C(=O)N[C@H](C(=O)N[C@H](C(=O)N[C@H](C(=O)N[C@@H](C)C(=O)N1CCC[C@H]1C(=O)N[C@H](C(=O)N[C@@H](Cc1c[nH]cn1)C(=O)N[C@H](C(=O)O)[C@@H](C)CC)C(C)C)C(C)C)[C@@H](C)O)C(C)C)C(C)C [Peptide 10, Ile-Leu-Phe-Glu-Val-Pro-Glu-Val-Thr-Val-Ala-Pro-Val-His-Ile] (H-ILFEVPEVTVAPVHI-OH; N-terminus and C-terminus assumed) | two orders of magnitude less potent than peptide 6 | – | – | – | Ki ([1]; hLE inhibitory activity range): 50 to 100 µM; Ki ([2]; hCG inhibitory activity range): 150 to 200 µM |
| CC[C@H](C)[C@H](NC(=O)[C@H](CC(=O)O)NC(=O)[C@H](CCCN)NC(=O)[C@H](CO)NC(=O)[C@H](Cc1c[nH]c2ccccc12)NC(=O)[C@H](Cc1ccccc1)NC(=O)[C@@H](NC(=O)[C@H](CC(C)C)NC(=O)[C@@H](NC(=O)[C@@H](N)CCC(=O)O)[C@@H](C)CC)[C@@H](C)CC)C(=O)NCC(=O)N[C@@H](Cc1ccc(O)cc1)C(=O)N[C@@H](CO)C(=O)N[C@@H](Cc1ccccc1)C(=O)N[C@H](C(=O)O)[C@@H](C)O [Peptide 20, Glu-Ile-Leu-Ile-Phe-Trp-Ser-Orn-Asp-Ile-Gly-Tyr-Ser-Phe-Thr] (HELM PEPTIDE1{E.I.L.I.F.W.S.[Orn].D.I.G.Y.S.F.T}$$$$V2.0; N-terminus and C-terminus assumed) | retained the same level of inhibitory activity as peptide 6 | 0.25 ± 0.05 | – | – | Ki [1, 6]: 0.25 ± 0.1 µM |
| CC[C@H](C)[C@H](NC(=O)[C@H](CC(=O)O)NC(=O)[C@H](CCCCN)NC(=O)[C@@H](N)CO)C(=O)NCC(=O)N[C@@H](Cc1ccc(O)cc1)C(=O)N[C@@H](CO)C(=O)O [Peptide 16, Ser-Lys-Asp-Ile-Gly-Tyr-Ser] (H-SKDIGYS-OH) | totally inactive | > 200 | – | – | Ki [1, 6]: > 200 µM |
| CC[C@H](C)[C@H](NC(=O)[C@H](CC(=O)O)NC(=O)[C@H](CCCCN)NC(=O)[C@H](CO)NC(=O)[C@H](Cc1c[nH]c2ccccc12)NC(=O)[C@H](Cc1ccccc1)NC(=O)[C@@H](NC(=O)[C@H](CC(C)C)NC(=O)[C@@H](NC(=O)[C@H](CCC(=O)O)NC(=O)[C@H](CC(N)=O)NC(=O)[C@H](CC(=O)O)NC(=O)[C@H](CCC(N)=O)NC(=O)[C@H](CCCNC(=N)N)NC(=O)[C@H](CCCCN)NC(=O)[C@@H](NC(=O)[C@H](C)N)[C@@H](C)O)[C@@H](C)CC)[C@@H](C)CC)C(=O)NCC(=O)N[C@@H](Cc1ccc(O)cc1)C(=O)N[C@@H](CO)C(=O)N[C@@H](Cc1ccccc1)C(=O)N[C@H](C(=O)N[C@H](C(=O)NCC(=O)NCC(=O)N[C@@H](CO)C(=O)N[C@@H](CCC(=O)O)C(=O)N[C@H](C(=O)N[C@@H](CC(C)C)C(=O)O)[C@@H](C)CC)C(C)C)[C@@H](C)O [Peptide 17] (H-ATKRQDNEILIFWSKDIGYSFTVGGSEIL-OH; N-terminus and C-terminus assumed) | reduced inhibitory activity; also recorded: reduction of inhibitory activity | 5.5 ± 1 | – | – | hCG inhibitory activity (in words) [2]: reduction of inhibitory activity |
| CC[C@H](C)[C@H](NC(=O)[C@H](CC(=O)O)NC(=O)[C@H](CCCCN)NC(=O)[C@H](CO)NC(=O)[C@@H](N)Cc1c[nH]c2ccccc12)C(=O)NCC(=O)N[C@@H](Cc1ccc(O)cc1)C(=O)N[C@@H](CO)C(=O)N[C@@H](Cc1ccccc1)C(=O)N[C@H](C(=O)N[C@H](C(=O)NCC(=O)NCC(=O)N[C@@H](CO)C(=O)N[C@@H](CCC(=O)O)C(=O)O)C(C)C)[C@@H](C)O [Peptide 7, Trp-Ser-Lys-Asp-Ile-Gly-Tyr-Ser-Phe-Thr-Val-Gly-Gly-Ser-Glu] (H-WSKDIGYSFTVGGSE-OH) | – | – | > 200 | > 200 | – |
| CC[C@H](C)[C@H](NC(=O)[C@H](CC(C)C)NC(=O)[C@@H](NC(=O)[C@H](CCC(=O)O)NC(=O)[C@H](CC(N)=O)NC(=O)[C@H](CC(=O)O)NC(=O)[C@H](CCC(N)=O)NC(=O)[C@H](CCCNC(=N)N)NC(=O)[C@H](CCCCN)NC(=O)[C@@H](NC(=O)[C@H](C)NC(=O)[C@H](Cc1ccc(O)cc1)NC(=O)[C@H](CO)NC(=O)[C@@H](N)Cc1ccccc1)[C@@H](C)O)[C@@H](C)CC)C(=O)N[C@@H](Cc1ccccc1)C(=O)O [Peptide 4, Phe-Ser-Tyr-Ala-Thr-Lys-Arg-Gln-Asp-Asn-Glu-Ile-Leu-Ile-Phe] (H-FSYATKRQDNEILIF-OH) | – | – | > 200 | > 200 | – |
| CC[C@H](C)[C@H](NC(=O)[C@H](CC(=O)O)NC(=O)[C@H](CCCCN)NC(=O)[C@H](CO)NC(=O)[C@H](Cc1c[nH]c2ccccc12)NC(=O)[C@H](Cc1ccccc1)NC(=O)[C@@H](NC(=O)[C@H](CC(C)C)NC(=O)[C@@H](NC(=O)[C@@H](N)CCC(=O)O)[C@@H](C)CC)[C@@H](C)CC)C(=O)NCC(=O)N[C@@H](Cc1ccc(O)cc1)C(=O)O [Peptide 13, Glu-Ile-Leu-Ile-Phe-Trp-Ser-Lys-Asp-Ile-Gly-Tyr] (H-EILIFWSKDIGY-OH; N-terminus and C-terminus assumed) | diminished hLE inhibitory activity | – | – | – | hCG inhibitory activity (in words) [2]: diminished inhibitory activity |
